The record followed here is patent US20050187409A1, “Inhibitors of RNase P proteins as antibacterial compounds” (priority 2003, published 2005).

A word on the IC50: it is the concentration at which inhibition is half-maximal. What is called MIC is the lowest concentration found to suppress growth.

≈ marks a conversion by molar mass, not a printed value. Read-outs that look alike come from different tables or passages of the source.

In data set [1] the target is N. gonorrhea RNase P (M1 RNA + C5 protein) (Neisseria gonorrhoeae, UniProt Q5F4W3). Description: Time resolved fluorescence (TRF) RNase P inhibition assay. The format is biochemical. Conditions: 30 min enzyme reaction, ptGLN substrate. The text has this: The ability of compounds of the invention to inhibit RNase P enzymes can be assessed by standard techniques. For example, the cleavage of ptRNA^Gln by the enzyme N. Gonorrhea RNase P, can be monitored in the presence and absence of a candidate compound as described in the Example 15. The progress of the RNase P-mediated cleavage reaction can be assessed by measuring the […] hybridized to the cleaved substrate.
Time Resolved Fluorescence RNase P Inhibition Assay
96-well Nunc MaxiSorp FluoroNunc plates were coated with 50 μl/well of 1 μg/ml of streptavidin in base buffer (150 mM KCl, 5 mM MgCl2, 50 mM Tris, pH 7.6) and incubated overnight. The plates were washed using TRF.96 protocol, and then blocked with 150 μl of a 1 mg/ml BSA solution in base buffer and incubated with shaking for sixty minutes. The plates were then washed twice with base buffer plus 0.01% Tween20. 50 μl of 40 nM T17-bt (biotinylated DNA oligonucleotide complementary to the RNaseP substrate leader sequence used to capture intact RNaseP substrate) was then added to all wells, and the plates were incubated with shaking for 1 hr.
A 0.4 nM solution of N. gonorrhea M1 RNA was made from a 1 μM stock solution. A 0.5 nM solution of N. gonorrhea C5 protein is made by diluting a 10 μM stock. ΔUL-ptGLN UTP-bt (10 μM stock) was diluted into PA buffer for a concentration of 40 nM.
Compounds were serially diluted in DMSO from 20 mM stocks to 6, 2, 0.6, 0.2, and 0.06 mM dilutions. These titrations were then diluted (2 μl to 100) in PA buffer, and 12.5 μl of each concentration was added in duplicate to a 96-well V-bottom polypropylene plate. The highest concentration was put in row G and the lowest in row B. Rows A & H received 12.5 μl of DMSO/PA buffer.
The enzyme reaction was initiated in the V-bottom polypropylene plates containing compound dilutions by adding 12.5 μl of the N. gonorrhea M1 solution to rows A-G. PA buffer was added to row H. 12.5 μl of the C5 solution was added similarly to the M1 solutions. 12.5 μl of the substrate solution was then added to all wells. The plates were incubated for 30 minutes at which time 12.5 μl of stop buffer was added to all wells. (Stop buffer: 500 μg/ml polyC/50 nM SA-Eu in 335 mM MgCl2 PA buffer).
The T17-biotin-coated plate was washed three times, and 37.5 μl of 75 mM MgCl2 PA buffer was added to each well. After 30 minutes incubation with the stop buffer, 12.5 μl from all of the enzyme reaction wells was transferred to the T17 plates. The plates were then incubated for 1.5 hr at room temperature with shaking. The plates were washed three times and 40 μl of Delfia enhancement solution (Wallac Oy) was added to all wells. The plates were then read on the Victor 2 plate reader.

In the next data set the test system is N. gonorrhoeae. Description: Bacterial inhibition assay (growth, MTS readout). Type of data set: cell-based. Conditions: CAMHB-3% LHB medium, 35° C., 5% CO2, 24 hours. The method, then:
(§1) Compounds of the invention (see Table 5) were assayed for their ability to inhibit bacterial growth. Compounds were diluted from 10 mM DMSO stocks to 3 mM and 1 mM in DMSO. The compounds were further diluted from these stocks into saline for 200, 120, and 20 μM stocks. Control antibiotics were diluted similarly. Overnight cultures of bacteria were made in the following manner. N. gonorrhea was streaked onto a chocolate agar plate and incubated at 35° C./5% CO2. Rather than make an overnight culture of S. pyogenes, a loopful of S. pyogenes from a blood plate or a stock plate was used the following day for direct cell suspension.
(§2) On the following day bacteria were prepared by dilution into saline with O.D. […] readings taken to determine the concentration of the bacteria. CFUs (colony forming units) were determined using the formula: CFU/mL=OD625×(1.5×10^8 CFU/mL/OD McFarland std)×dilution. The four bacterial cultures were diluted initially to 5.5×10^7 CFU/mL. The bacteria were then further diluted into medium to 5.5×10^5 CFU/mL for S. pyogenes and 5.5×10^6 CFU/mL for N. gonorrhea. S. pyogenes and N. gonorrhea were grown in CAMHB-3% LHB medium. The bacteria were added one per plate at 200 μL per well. Compounds were added in 10 μL aliquots for final concentrations of 10, 3, and 1 μM in duplicate. Control antibiotics, penicillin for S. pyogenes and ciprofloxacin for N. gonorrhea, were added from 0.8 mg/ml to 0.003 mg/ml. Plates were incubated at 35° C. with O2 for 16-20 hours for S. pyogenes, and read at OD665 in a Victor2 plate reader. Plates were incubated at 35° C. with 5% CO2 for 24 hours for N. gonorrhea at which time 40 μL of MTS reagent is added per well and incubated for 1 hour in same incubator. The plates were read at OD490. Compounds were tested at 1 μM, 3 μM, and 10 μM concentrations. The results, which are expressed as a percentage of the control, were calculated using equation 2. In this equation, O.D. is optical density; (O.D. compounds+bacteria) is the optical density observed for bacteria grown in the presence of a compound of the invention; (O.D. blank) is the optical density in the absence of bacteria; and (O.D. bacteria) is the optical density observed for bacteria growing uninhibited. Other RNase P inhibitors may be tested similarly using any bacteria of interest. [formula]

The test system of the next data set is S. pyogenes. Put plainly: Bacterial inhibition assay (growth, OD readout). The format is cell-based. Particulars: CAMHB-3% LHB medium, 35° C., 16-20 hours. The method, then: as §1, §2
Data set [2] deals with T1, N. gonorrhoeae RNase P holoenzyme (Neisseria gonorrhoeae, UniProt Q5F4W3).
T1 sequence (Q5F4W3 1-121): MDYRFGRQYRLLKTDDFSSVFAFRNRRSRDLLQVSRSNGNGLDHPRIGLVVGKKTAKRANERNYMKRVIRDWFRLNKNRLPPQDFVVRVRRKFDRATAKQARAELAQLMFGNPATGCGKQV
Description: biochemical. Particulars: 32P-labelled pGln substrate, room temperature; read-out: N. gonorrhoeae Gel assay IC50(μM) (Example 16). The method, then: RNase P Inhibition Polyacrylamide Gel Assay
The substrate, the precursor of tRNA^Gln, (pGln), from Synechocystis (Pascual and Vioque, 1999), was synthesized in vitro from the corresponding cDNA by T7 RNA polymerase in the presence of α^32P-GTP. Each control RNase P reaction of 10 μl contained 50 mM Tris-HCl (pH 7.8), 10 mM MgCl2, 100 mM NH4Cl, 1 mM dithiothreitol, and 0.4-1.0 pmol pGln substrate, radiolabeled to a specific activity of 1000-10,000 cpm/pmol. The reaction mixture, containing 0.1-1 nM holoenzyme, was incubated for 5-60 min at room temperature (18-24° C.), and the reaction was terminated by addition of an equal volume of 40 mM EDTA/8 M urea. The samples were electrophoresed in denaturing 8% polyacrylamide gels. The activity was quantified by exposure of the gel to a phosphorimaging screen. For test reactions that require the addition of compounds, the RNA subunits were pre-incubated with compound for 10 min at room temperature in the presence of buffer, followed by addition of the protein subunit. After a further 10 minutes of incubation, the radiolabeled substrate was added, and the reaction initiated. Products were analyzed as just described. The IC50 was the concentration of compound that was required to inhibit RNase P activity by 50%.

Data set [3] in a line: Cellular toxicity assay (MTS) on PBMC. The format is cell-based, human. Particulars: human, peripheral blood mononuclear cells (PBMC); 24 hours incubation, MTS reagent; read-out: PBMC's TC50. As to the method: Compounds of the invention (see Table 6) were assayed for cellular toxicity as follows. Whole blood was drawn from a volunteer, and the red cells were separated from the buffy coat cells by centrifugation over ficoll-paque. The resulting peripheral blood mononuclear cells (PBMC) were collected from the interface and washed extensively with PBS by centrifugation to remove platelets and cellular debris. The cells were then plated in 96-well tissue culture plates at a density of 5×10^5 cells per mL at 200 μL per well. After an hour incubation, the candidate compounds were added at the appropriate concentrations diluted from DMSO stocks into assay buffer (RPMI medium supplemented with 10% FCS). The cells were incubated at 37° C., 100% humidity and 5% CO2 for 24 hours at which time MTS reagent was added per the manufacturer's (Promega) instructions. After 2-3 hours incubation the optical density of the wells was read on a spectrophotometer. […] The data are evaluated using equation 2 as described in Example 17, where bacterial cells are replaced by PBMC cells in the measurements. The data describes the toxicity of these compounds to a representative human cell population (PBMC's).

Where [4] appears, read: read-out: N. gonorrhoeae TRF IC50(μM) (Example 15).

With `O=C(O)c1ccc(-c2nc(-c3ccc(-c4nc(-c5ccc(C(=O)O)cc5)[nH]c4-c4ccccc4)cc3)c(-c3ccccc3)[nH]2)cc1` [MES 110417], the IC50 in data set [1] (setting [4]) was determined as 10 µM. Further, the MIC is given as 30 µM (≈ 18.1 µg/mL) with N. gonorrhoeae and >100 µM in the data set with S. pyogenes.

For `CC(=NNC(=N)N)c1cccc(NC(=O)[C@@H]2CCCN2C(=O)c2cccc(C(C)=NNC(=N)N)c2)c1` [MES 10926, Bisguanylhydrazone of (S)-1-(3-acetylbenzoyl)-N-(3-acetylphenyl) prolinamide], the figures for the IC50 in data set [1] (setting [4]) and in data set [2] were 43 µM and 100 µM, respectively. Further, the MIC came out at 80 µM (≈ 39.2 µg/mL) in the data set on N. gonorrhoeae (Neisseria gonorrhoeae) and 30 µM (≈ 14.7 µg/mL) against S. pyogenes (Streptococcus pyogenes). In data set [3], the CC50 at 24 h is > 100 µM.

Take `CC(=NNC(=N)N)c1cccc(NC(=O)[C@@H]2Cc3ccccc3CN2C(=O)c2cccc(C(C)=NNC(=N)N)c2)c1` [MES 10848, Bisguanylhydrazone of (S)-2-(3-acetylbenzoyl)-N-(3-acetylphenyl)tetrahydro-isoquinoline-3-carboxamide]: the IC50 in data set [1] (setting [4]) is 3 µM; in data set [2], 6 µM. Further, the MIC in the data set with N. gonorrhoeae (Neisseria gonorrhoeae) amounted to 100 µM (≈ 55.3 µg/mL); in the data set with S. pyogenes (Streptococcus pyogenes), 10 µM (≈ 5.53 µg/mL). Besides, the CC50 at 24 h in data set [3] was > 100 µM.

Regarding `CC(=NNC(=N)N)c1ccc(NC(=O)Nc2ccc(C(C)=NNC(=N)N)cc2)cc1` [MES 10950, Bisguanylhydrazone of N,N′-bis(4-acetylphenyl)urea], the IC50 in data set [1] (setting [4]) was 6 µM; in data set [2] it was 7 µM. For the same molecule, the figures for the MIC with N. gonorrhoeae (Neisseria gonorrhoeae) and in the data set on S. pyogenes (Streptococcus pyogenes) were 30 µM (≈ 12.3 µg/mL) and 10 µM (≈ 4.08 µg/mL), respectively. Moreover, the CC50 at 24 h in data set [3] was > 100 µM.

In the case of `CC(=NNC(=N)N)c1cccc(NC(=O)[C@H](Cc2ccc(-c3ccccc3)cc2)NC(=O)c2ccccc2)c1` [MES 10910, Guanylhydrazone of (S)-1-benzoyl-N-(3-acetylphenyl) biphenylalaninamide], the IC50 in data set [1] (setting [4]) is 7 µM.

For `N=C1/C(=C/c2ccc(-c3ccc(C(=O)O)cc3)o2)C(=O)N=C2SC(c3ccccc3)=NN12` [MES 110392], in data set [1] (setting [4]), the IC50 stood at 2 µM. Moreover, the figures for the MIC against N. gonorrhoeae and against S. pyogenes were 100 µM (≈ 44.2 µg/mL) and >100 µM, respectively.

Consider `CC(=NNC(=N)N)c1cccc(NC(=O)c2cccc(-c3ccccc3)c2)c1` [MES 10915, Guanylhydrazone of N-(3-acetylphenyl)-3-biphenylcarboxamide], for which the IC50 in data set [1] (N. gonorrhoeae TRF IC50(μM) (Example 15)) was 16 µM; in data set [2], 10 µM.

Turning to `CC(=NNC(=N)N)c1cccc(NC(=O)Nc2cccc(C(C)=NNC(=N)N)c2)c1` [MES 10949, Bisguanylhydrazone of N,N-bis(3-acetylphenyl)urea], the half-maximal inhibitory concentration (IC50) in data set [1] (setting [4]) worked out at 6 µM; in data set [2], 30 µM. In addition, the minimal inhibitory concentration (MIC) against N. gonorrhoeae (Neisseria gonorrhoeae) was found to be 100 µM (≈ 40.8 µg/mL); in the data set with S. pyogenes (Streptococcus pyogenes), 30 µM (≈ 12.3 µg/mL). Further, in data set [3], the CC50 at 24 h is > 100 µM.

As to `CC(=NNC(=N)N)c1cccc(NC(=O)c2ccc(-c3ccccc3)cc2)c1` [MES 10938, Guanylhydrazone of N-(3-acetylphenyl)-4-biphenylcarboxamide], the IC50 in data set [1] (setting [4]) is 80 µM.

Take `N=C1/C(=C/c2ccc(-c3ccc(C(=O)O)cc3)o2)C(=O)N=C2SC(Cc3cccs3)=NN12` [MES 110410]: the IC50 in data set [1] (setting [4]) is 15 µM. Also, the MIC was 30 µM (≈ 13.9 µg/mL) in the data set with N. gonorrhoeae and >100 µM against S. pyogenes.

For the molecule `CC(=O)Oc1cccc2ccc(/C=C/c3ccc(C(=O)O)cc3)nc12` [MES 110394], the IC50 in data set [1] (setting [4]) stood at 9 µM. The same molecule registered an MIC against N. gonorrhoeae of 10 µM (≈ 3.33 µg/mL). For the same molecule, the “S. pyogenes MIC(μM)” value with S. pyogenes is recorded as >100− μM.

Regarding `CC(=NNC(=N)N)c1cccc(NC(=O)[C@H](CCc2ccccc2)NC(=O)c2cccc(I)c2)c1` [MES 10914, Guanylhydrazone of (S)-1-(3-iodobenzoyl)-N-(3-acetylphenyl) homophenyl-alaninamide], in data set [1] (setting [4]), the IC50 was 6 µM.

For the molecule `O=C(O)c1ccc(-c2ccc(/C=C3\S/C(=N\c4ccccc4)N(c4ccccc4)C3=O)o2)cc1` [MES 110430], the IC50 in data set [1] (setting [4]) came to 7 µM. The values for the MIC in the data set with N. gonorrhoeae and with S. pyogenes were 30 µM (≈ 14 µg/mL) and >100 µM, respectively.
